Laboratory results: a melting point compilation (Tetko et al.; mined from patent text by program, amines drawn as free bases though some values may be those of a salt)

melting point [°C] | SMILES
90 to 92 | C=CCc1c(OCc2ccccc2)ccc2c(=O)ccoc12
107 to 109 | CON1C(=O)CC12C=CC(=O)C=C2
247 to 248 | O=[N+]([O-])c1cccc2c1sc1c(Nc3cccc(Br)c3)ncnc12
95 to 96 | COc1cc2c(cc1OC)CC(=O)N(CCC=O)C=C2
242 | CCCCOc1ccc(S(=O)(=O)C2(C(=O)O)CCN(Cc3ccc(C#N)cc3)CC2)cc1
> 340 | O=C1NCc2c1c1c(c3[nH]c4ccccc4c23)Cc2ccc(Br)cc2-1
67 to 69 | O=C(N[C@@H]1CCC[C@H]1O)C(O)=CC(=O)c1cc(Cc2ccc(F)cc2)cn(Cc2ccccc2F)c1=O
207 | NC(=O)c1cc2c3ccccc3n(Cc3ccccc3)c2s1
112 to 113 | Cc1ccc(C[C@H]2NC(=O)O[C@H]2c2ccc(F)cc2)cc1OC(F)(F)C(F)F (racemic)
278 to 280 | O=C(NC(Cc1ccc(OCc2ccccc2)cc1)C(=O)O)c1ccc2nc(-c3ccc(Cl)cc3)cn2c1 (centres undefined)
155 to 156 | CCCCNc1c(C#N)cnc2cc(F)c(OC)cc12
96 | CCCCNc1nc2ccccc2n2ncc(C(=O)OCC)c12
133 to 135 | Nc1ccc(C(=O)c2cccc3c2NCC3)cc1
171 to 172 | Cc1cccc(C)c1CNc1cc(C(=O)N(C)C)cc2c1nc(CO)n2C
77 to 78 | C=Cc1ccc(NC(=O)C(C)C)nc1
78 to 80 | COc1c(Cl)nc(-c2ccccc2)nc1Cl
173 to 175 | C/C(=C(\C#N)C(N)=S)N1CC[C@@H]2CCCC[C@H]2C1 (relative stereo)
160 to 161 | COc1ccc(F)cc1C1CC(=O)CC(=O)C1
49.5 to 50 | CCCCCCCCCCCCOC(C)c1ccc(C(=O)O)cc1 (single isomer, unassigned; (+))
126 to 128 | CCN(CC)CC(=O)Nc1cccc(-c2cc(-c3ccc(F)cc3OCOC)nc(NC(=O)c3ccco3)c2C#N)c1
271 to 273 | CCOc1ccc(-c2nc(-c3cc(CNC)c(O)c(C(=O)O)c3)cs2)cc1OCC
55.5 to 56.5 | CCC(=O)Oc1ccc(CC(=O)O)cc1C(C)(C)C
194 to 196 | COC(=O)Cc1c(C)c2ccc(O)cc2oc1=O
179 to 180 | COc1ccc(OCC2(Cc3c(C)nc(OC)c(C(C)C)c3C(=O)c3cc(C)cc(C#N)c3)CC2)cc1

melting point [°C] | SMILES
182 to 183 | CCN(CC)c1nc(Nc2ccc3cc(-c4ccccc4)c(=O)oc3c2)nc(N2CCCC(CO)C2)n1 (centres undefined)
217 to 219 | Cc1ccc(-c2c3ccccc3nc3ccc(N(S(C)(=O)=O)S(C)(=O)=O)cc23)cc1
91.5 to 93.3 | CCCCCC(COc1ccc(C(=O)O)cc1)c1ccc2c(c1)OCCC2(C)C (centres undefined)
110 to 120 | CN1Cc2[nH]c3ccccc3c2C1
165 to 167 | CCc1cnc(C2=NC(C)(C(C)C)C(=O)N2)c(C(=O)NCCCC(=O)O)c1 (centres undefined)
72 to 73 | OCc1cnoc1-c1ccc(F)c(F)c1
50 to 55 | CN1CN(C(=O)c2c(F)cccc2F)C(=O)N(c2ccc(S(=O)C(F)F)cc2F)C1 (centres undefined)
156 | CCOC(=O)c1c(C(F)(F)F)nc2cc(C(F)(F)F)ccc2c1O
136 to 138 | CCCOc1ccc(SC(C)(C)C)cc1C(N)=O
192 to 194 | Cc1ccc2c(n1)Nc1ccccc1N(C)C2=O
85 to 93 | COc1ccccc1N1CCN(CCCN2C(=O)c3ccccc3C2=O)CC1
116 to 118 | O=C(SCC(SC(=O)c1ccccc1)C(=O)O)c1ccccc1 (centres undefined)
287 to 289 | CCOC(=O)NN=C(C)C1(N)C(O)CC2C3CC=C4CC(OC(C)=O)CCC4(C)C3CCC21C (centres undefined)
244 to 246 | O=CN1C(=O)NC(=O)C12C(=O)N(Cc1ccc(Cl)c(Cl)c1)c1ccccc12 (centres undefined)
163 | CCOC(=O)c1ccc2c(c1)N(C(=O)C(C)Br)c1ccccc1C=C2 (centres undefined)
215 to 218 | O=C(O)C1=C(C(=O)O)Oc2ccccc2O1
185 to 187 | CNc1c(NCCSCc2ccc(CN(C)C)s2)c(=O)c1=O
179 | COc1c(O)c(CN2CCN(C)CC2)c(O)c2c(=O)cc(-c3ccccc3)oc12
110 to 117 | O=C1CC[C@@H](CCCO)[C@H](c2ccc(OCc3ccccc3)cc2OCc2ccccc2)C1 (relative stereo)
147 to 150 | Cc1c(I)c(=O)n(-c2cc(C(=O)OC(C)C)c(Cl)cc2F)c(=O)n1C
70 to 71 | CCCCCCCCNC(=O)OCc1ccccc1[N+](=O)[O-]
187 to 188 | c1ccc(-c2[nH]c3cc4c(cc3c2-c2ccccc2)OCO4)cc1
144 to 147 | Oc1c(Cl)cc(Cl)c2cc(Cl)cnc12
133 to 134 | Oc1cccc(CCCCn2ccnc2)c1

melting point [°C] | SMILES
155 to 160 | NC(=O)N1CCC(Oc2c(F)c(F)c(F)c(F)c2F)(c2ccccc2)CC1
127 to 128 | CCCCCCCCCCCCCCCc1cc2cc(C(=O)O)ccc2n1C
75 to 90 | CCOC(=O)CCCN1CCC[C@H](NCc2ccccc2OC)[C@@H]1c1ccccc1 (relative stereo)
108 to 112 | CC(=O)Nc1ccccc1C(=O)NCCN1[C@H](C)Cc2ccsc2[C@@H]1C (relative stereo)
126 to 128 | O=Cc1ccc2cc[nH]c2c1
185 to 189 | O=C(Cn1nc(Br)nc1Br)N1CCC(c2nc(C3=NOC(c4c(F)cccc4F)C3)cs2)CC1 (centres undefined)
204 to 206 | CSc1nnc2c3cnn(C)c3ncn12
118 to 120 | CCCc1nn(CC)c2c(=O)n(CCCOc3ccc(SC(C)(C)C(=O)O)cc3)c(C)nc12
156 to 158 | CC(=O)NNC(=O)c1cccc(I)c1
162 to 165 | CC(=O)c1c(O)cccc1OCC(F)COc1cccc(O)c1C(C)=O
118 to 119 | CCOC(=O)C1=C(C)NC(C)=C(C(=O)OCC)C1c1ccc(F)c(Br)c1
88 to 88.5 | CCOP(=O)(Cc1cc(C=O)ccc1O)OCC
220 to 222 | Cc1ccccc1-c1nc2n(c1Br)-c1cccnc1Nc1ccccc1-2
244 to 246 | COc1ccc2c(c1)S(=O)(=O)c1ccccc1C(=O)N2
86 to 88 | Oc1cccc(O)c1Br
116 to 117 | N#CC(Cc1ccccn1)(c1ccccc1)c1ccccc1
175 | O=C(NCc1cccnc1)c1ccc2n1Cc1ccccc1N(C(=O)/C=C/c1ccccc1)C2
188 to 189 | O=C1NC(=O)C(Cc2ccc(OCCN3CCOCC3)cc2)S1 (centres undefined)
257 to 259 | CC(=O)NC1CCc2cc3c(cc21)CCC3 (centres undefined)
127 to 128 | CCOc1nn(Cc2ccc(OCc3ccc(-c4ccccc4)cn3)cc2)cc1CCC(=O)O
182 to 186 | Cc1c(F)c(OC(F)F)cc2c1c(C#N)c(-c1ccc(S(=O)(=O)N[C@@H](C)C(F)(F)F)cn1)n2C1CCC1
244 to 245 | Cc1c(Cc2ccc(C(C)C)cc2)c2c(c(C)c1NC(=O)CC(C)(C)C)C(O)C(C)(C)O2 (centres undefined)
280 to 281 | O=c1[nH][nH]c(=O)c2c(O)c3c(Br)cccc3nc12
173 to 175 | Fc1ccc(Nc2ncnc3cnc(NCCN4CCNCC4)nc23)cc1Cl

melting point [°C] | SMILES
149 to 150 | C=CCOc1nccnc1Cl
172 to 173 | O=C(Nc1nc(C(F)(F)F)c(I)s1)c1cc(C(F)(F)F)cc(C(F)(F)F)c1
243 to 245 | CNC1CCN(c2nc3c(cc2F)c(=O)c(C(=O)O)cn3CCF)C1 (centres undefined)
115 | COc1cc(N)c(Cl)cc1C(=O)N[C@H]1CCN(CCCCNc2ncccn2)C[C@H]1OC (relative stereo)
124 to 125 | NS(=O)(=O)c1ncccc1F
104 to 106 | CN1c2ccccc2CN(C(=O)C(F)(F)F)c2ccccc21
237 to 242 | CCNCC1CN(c2c(F)cc3c(=O)c(C(=O)O)cn(C4CC4)c3c2F)C1
124 to 133 | CCCNC(=O)CCCCOc1ccc2c(c1)CCCN2C1CC(C)N(C(=O)c2cc(OC)c(OC)c(OC)c2)c2ccccc21 (centres undefined)
66.5 to 67.5 | OCCCCOc1ccc2ccccc2c1
122 to 132 | Cc1noc(NS(=O)(=O)c2ccccc2-c2ccc(-c3ncco3)cc2CN(C)C(=O)c2ccc(Cl)cc2)c1C
172 to 173 | COc1ccc(C(=O)Oc2ccc(C(=O)O)cc2C(=O)O)cc1C12CC3CC(CC(C3)C1)C2
154 to 155 | Clc1ccc(N2CCN(Cc3cn4cc(Br)ccc4n3)CC2)cc1
80 to 81 | COC(=O)C1CCc2cc(C)c(C)cc2C1=O (centres undefined)
198 to 200 | Nc1ncc(-c2cnc3ccc(-c4ccc(OCC5(N)COC5)cc4)nn23)cc1C(F)(F)F
181 to 182 | CC(C)(C)c1coc2c(-c3ccc(F)cc3)c(-c3ccc(S(C)(=O)=O)cc3)nn12
115 to 116 | CC(C)S(=O)(=O)Nc1cc(C(=O)c2ccccc2)ccc1[N+](=O)[O-]
137 to 139 | Cc1cn2ccccc2c1[N+](=O)[O-]
215 | Nc1ccc(S(=O)(=O)Nc2cccc3[nH]ccc23)cc1
194 to 197 | C[C@H](Nc1ncnc2[nH]cnc12)c1oc2ccc(F)cc2c(=O)c1-c1cccc(F)c1
162 to 165 | CC(=O)OC(C)(C)C(=O)Nc1c(C(=O)c2ccccc2)[nH]c2cc(Cl)ccc12
205 to 207 | O=C(Cc1c(-c2ccccc2)c2cc(CN3CCOCC3)c(Cl)cc2oc1=O)Nc1ccc(Cl)cc1C(F)(F)F
272 | Cn1ncc(C(=O)N2CCC2)c1C(=O)Nc1ccc2nc(-c3cccnc3)nn2c1
114 | CCOC(=O)c1c(Nc2ccccc2[N+](=O)[O-])c(C)cn1C

SMILES | melting point [°C]
NC(=NO)c1ncn2c1[C@@H]1CCCN1C(=O)c1c(Br)cccc1-2 | 235 to 237
CN1C(=O)[C@H](NC(=O)CC2CCCCC2)N=C(c2ccccc2)c2ccccc21 | 144 to 146
N#Cc1nn(-c2c(Cl)cc(C(F)(F)F)cc2Cl)cc1-c1ccccc1C(F)(F)F | 142 to 143
CN1C2CCC1C(CO)C(c1ccc(I)cc1)C2 (centres undefined) | 90 to 92
